ChEMBL document CHEMBL4613297, “Peptides Mimicking the β7/β8 Loop of HIV-1 Reverse Transcriptase p51 as "Hotspot-Targeted" Dimerization Inhibitors” (ACS Med Chem Lett, 2020)
pIC50: −log10 of the molar value. Active and inactive are the calls of the source. No cut-off for these calls is given here. Where a SMILES comes first, the peptide text is derived from it. Bridges are numbered along the chain shown (N, C = ends).

Legend:
[1] = biological target: T1, Human immunodeficiency virus type 1 reverse transcriptase (Human immunodeficiency virus 1, UniProt Q72547); test: Inhibition of HIV-1 reverse transcriptase His-tagged p51 heterodimerization with HIV-1 reverse transcriptase p66 incubated for 16 hrs by ELISA
[2] = biological target: T1, Human immunodeficiency virus type 1 reverse transcriptase; test: (§1) Inhibition of recombinant HIV-1 BH10 reverse transcriptase p51/p66 expressed in Escherichia coli assessed as reduction in recovery of DNA polymerase activity preincubated with 15% acetonitrile for 15 hrs followed by compound addition and acetonitrile reduced to <1% using poly(rA)/oligo(dT)16 as template/primer in presence of [3H]dTTP; set-up: species or system Human immunodeficiency virus type 1 BH10
[3] = biological target: Human immunodeficiency virus type 1 reverse transcriptase (Human immunodeficiency virus 1) (UniProt Q72547); test: Inhibition of recombinant HIV-1 group M subtype B reverse transcriptase p51/p66 expressed in Escherichia coli M15 assessed as change in melting temperature at 100 uM incubated for 1 hr by sypro orange dye based differential scanning fluorimetric analysis; conditions: HIV-1 M:B
[4] = biological target: T1, Human immunodeficiency virus type 1 reverse transcriptase; test: Inhibition of recombinant HIV-1 BH10 reverse transcriptase p51/p66 expressed in Escherichia coli preincubated for 10 mins followed by D38/25PGA template-primer addition and measured after 10 to 30 secs by denaturing PAGE based single nucleotide incorporation assay; set-up: species or system Human immunodeficiency virus type 1 BH10
[5] = biological target: Human immunodeficiency virus type 1 reverse transcriptase (Human immunodeficiency virus 1) (UniProt Q72547); test: Inhibition of RNase H activity of recombinant HIV-1 BH10 reverse transcriptase p51/p66 expressed in Escherichia coli at 100 uM; conditions: Human immunodeficiency virus type 1 BH10
[6] = biological target: Human immunodeficiency virus type 1 reverse transcriptase (Human immunodeficiency virus 1) (UniProt Q72547); test: as §1, with “activity at 200 uM” for “activity”, “[3H]dTTP relative to control” for “[3H]dTTP”; conditions: Human immunodeficiency virus type 1 BH10

Molecule | pIC50 [1] | pIC50 [2] | ΔTm [3] [°C] | pIC50 [4] | inhibition [5] | inhibition [6] [%]
Cc1cn([C@@H]2O[C@H](CO[Si](C)(C)C(C)(C)C)[C@]3(C=CS(=O)(=O)O3)[C@H]2O[Si](C)(C)C(C)(C)C)c(=O)[nH]c1=O |  |  | -1.4 |  |  | 
H-IPSINNETPGI-OH | < 3.82 |  | -13.6 | < 3.84 | inactive | 
CC[C@H](C)[C@H](NC(=O)CNC(=O)[C@@H]1CCCN1C(=O)[C@@H](NC(=O)[C@H](CCC(=O)O)NC(=O)[C@H](CC(N)=O)NC(=O)[C@H](CC(N)=O)NC(=O)[C@@H](NC(=O)[C@H](CO)NC(=O)[C@@H]1CCCN1C(=O)[C@@H](NC(=O)[C@@H](NC(=O)[C@@H](N)Cc1ccccc1)[C@@H](C)O)[C@@H](C)CC)[C@@H](C)CC)C(C)O)C(=O)N[C@@H](CCCNC(=N)N)C(=O)N[C@@H](Cc1ccc(O)cc1)C(=O)O (single isomer, unassigned) |  |  | -15.6 | < 3.84 | inactive | 

Further lines, results first:

pIC50 [1] | pIC50 [2] | ΔTm [3] [°C] | pIC50 [4] | inhibition [5] | inhibition [6] [%] | Molecule
4.43 | 3.69 | -15.8 | 3.96 | inactive |  | CC[C@H](C)[C@@H]1NC(=O)[C@@H](N)CSSC[C@@H](C(=O)O)NC(=O)[C@H](CCC(=O)O)NC(=O)[C@H](CC(N)=O)NC(=O)[C@H](CC(N)=O)NC1=O (H-CINNEC-OH; disulfide 1-6)
 |  | -15 | < 3.84 | inactive |  | CC[C@H](C)[C@@H]1NC(=O)[C@H](CCCNC(=N)N)NC(=O)[C@H](Cc2ccc(O)cc2)NC(=O)[C@H]2CCCN2C(=O)[C@@H]2CCCN2C(=O)[C@H](Cc2ccccc2)NC(=O)[C@H]([C@H](C)O)NC(=O)[C@H]([C@@H](C)CC)NC(=O)[C@@H]2CCCN2C(=O)[C@H](CC(N)=O)NC(=O)[C@H]([C@@H](C)CC)NC(=O)[C@@H](CO)NC(=O)[C@H](CC(N)=O)NC(=O)[C@@H](CCC(=O)O)NC(=O)[C@H]([C@H](C)O)NC(=O)[C@@H]2CCCN2C(=O)CNC1=O
3.86 | < 3.60 | -14.5 | < 3.84 | inactive | < 5 | CC[C@H](C)[C@@H]1NC(=O)CNC(=O)[C@@H]2CCCN2C(=O)[C@H]([C@@H](C)O)NC(=O)C(CCC(=O)O)NC(=O)[C@H](CC(N)=O)NC(=O)C(CC(N)=O)NC(=O)[C@@H]([C@@H](C)CC)NC(=O)[C@H](CO)NC(=O)[C@@H]2CCCN2C(=O)[C@H]([C@@H](C)CC)NC(=O)[C@@H](N)CSSC[C@@H](C(=O)O)NC1=O (stereo partly drawn)
4.21 | < 3.60 | -15.8 | < 3.84 | inactive | 43 | CC[C@H](C)[C@@H]1NC(=O)[C@H](CO)NC(=O)[C@H](N)CSSC[C@@H](C(=O)O)NC(=O)[C@@H]2CCCN2C(=O)[C@H]([C@@H](C)O)NC(=O)[C@H](CCC(=O)O)NC(=O)[C@H](CC(N)=O)NC(=O)[C@H](CC(N)=O)NC1=O
